Test results from ChEMBL document CHEMBL4177652, “Synthesis of 14-deoxy-11,12-didehydroandrographolide analogues as potential cytotoxic agents for cholangiocarcinoma” (Bioorg Med Chem Lett, 2017).

Columns and labels:
[1] = Growth inhibition of human HEK293 cells after 72 hrs by SRB assay; assay type: cell-based; conditions: read-out: ED50
[2] = Growth inhibition of human KKU100 cells after 72 hrs by SRB assay; assay type: functional; conditions: KKU100, 72 h, read-out: ED50 (the source's name)
[3] = test system: P388; test: Growth inhibition of mouse P388 cells after 72 hrs by SRB assay; assay type: functional; conditions: P388, 72 h, read-out: ED50 (the source's name)
[4] = test system: KB; test: Growth inhibition of human KB cells after 72 hrs by SRB assay; assay type: functional; conditions: read-out: ED50 (the source's name)
[5] = Growth inhibition of human KKU-M213 cells after 72 hrs by SRB assay; assay type: functional; conditions: KKU-M213, 72 h, read-out: ED50 (the source's name)
[6] = Growth inhibition of rat ASK cells after 72 hrs by SRB assay; assay type: functional; conditions: read-out: ED50 (the source's name)
[7] = test system: HuCC-A1; test: Growth inhibition of human HuCCa1 cells after 72 hrs by SRB assay; assay type: functional; conditions: HuCC-A1, 72 h, read-out: ED50 (the source's name)
[8] = test system: MCF7; test: Growth inhibition of human MCF7 cells after 72 hrs by SRB assay; assay type: functional; conditions: MCF7, 72 h, read-out: ED50 (the source's name)
[9] = test system: HT-29; test: Growth inhibition of human HT-29 cells after 72 hrs by SRB assay; assay type: functional; conditions: HT-29, 72 h, read-out: ED50 (the source's name)
[10] = test system: A549; test: Growth inhibition of human A549 cells after 72 hrs by SRB assay; assay type: functional; conditions: A549, 72 h, read-out: ED50 (the source's name)

SMILES	GI50 at 72 h [1] [µM]	EC50 [2] [µM]	EC50 [3] [µM]	EC50 [4] [µM]	EC50 [5] [µM]	EC50 [6] [µM]	EC50 [7] [µM]	EC50 [8] [µM]	EC50 [9] [µM]	EC50 [10] [µM]
CC(C)(C)[Si](C)(C)OC[C@@]1(C)[C@H]2CC[C@@]3(CO3)[C@@H](/C=C/C3=CCOC3=O)[C@]2(C)CC[C@H]1O	6.15	9.25	15.1	19.2	8.57	19	> 50	8.18	7.24	9.36
Cc1c2ccncc2c(C)c2c1[nH]c1ccccc12 [ELLIPTECINE]	2.27	4.16	2.12	2.34	4.75	2.17	3.46	1.66	2.68	2.37
C=C1CC[C@@H]2[C@](C)(CO[Si](C(C)C)(C(C)C)C(C)C)[C@H](O)CC[C@@]2(C)[C@@H]1/C=C/C1=CCOC1=O	5.28	18.2	5.96	4.7	7.06	7.35	6.72	5.46	7.14	7.95
C=C1CC[C@@H]2[C@](C)(COC(c3ccccc3)(c3ccccc3)c3ccccc3)[C@H](OC(C)=O)CC[C@@]2(C)[C@@H]1/C=C/C1=CCOC1=O	7.02	> 50	12.9	6.36	9.98	39.9	38.6	9.12	21.9	12
C[C@]1(COC(c2ccccc2)(c2ccccc2)c2ccccc2)[C@H]2CC[C@@]3(CO3)[C@@H](/C=C/C3=CCOC3=O)[C@]2(C)CC[C@H]1O	5.39	28.8	3.33	4.92	4.68	6.47	7.81	5.38	6.21	5.88
CC(=O)O[C@@H]1CC[C@]2(C)[C@H](CC[C@@]3(CO3)[C@H]2/C=C/C2=CCOC2=O)[C@]1(C)CO[Si](C)(C)C(C)(C)C	18.1	16.4	7.45	25.8	19.1	22.4	23.4	16.6	18.6	24.1
C=C1CC[C@@H]2[C@](C)(COC(C)=O)[C@H](O)CC[C@@]2(C)[C@@H]1/C=C/C1=CCOC1=O	27.8	40.2	27.7	25.7	> 50	> 50	> 50	31.1	45	32.8
C=C1CC[C@@H]2[C@](C)(COC(C)=O)[C@H](OC(C)=O)CC[C@@]2(C)[C@@H]1/C=C/C1=CCOC1=O	25	> 50	27.7	25.7	37.3	42.5	40.9	28.8	41.9	34
CC(=O)O[C@@H]1CC[C@]2(C)[C@H](CC[C@@]3(CO3)[C@H]2/C=C/C2=CCOC2=O)[C@]1(C)CO[Si](C(C)C)(C(C)C)C(C)C	7.39	17.5	7.84	8.48	7.22	15.7	8.92	7.84	7.4	8.65
CC(C)[Si](OC[C@@]1(C)[C@H]2CC[C@@]3(CO3)[C@@H](/C=C/C3=CCOC3=O)[C@]2(C)CC[C@H]1O)(C(C)C)C(C)C	4.04	2.93	3.86	4.59	3.37	6.6	7.35	4.98	2.28	6.58
C=C1CC[C@@H]2[C@](C)(CO[Si](C)(C)C(C)(C)C)[C@H](O)CC[C@@]2(C)[C@@H]1/C=C/C1=CCOC1=O	6.61	3.09	8.24	5.12	27.4	9.61	18.2	7.61	8.48	17.2
CC(=O)O[C@@H]1CC[C@]2(C)[C@H](CC[C@@]3(CO3)[C@H]2/C=C/C2=CCOC2=O)[C@]1(C)COC(c1ccccc1)(c1ccccc1)c1ccccc1	5.99	14.1	5.28	5.12	10.2	8.29	9.74	6.84	6.74	8.16
C=C1CC[C@@H]2[C@](C)(COC(c3ccccc3)(c3ccccc3)c3ccccc3)[C@H](O)CC[C@@]2(C)[C@@H]1/C=C/C1=CCOC1=O	4.68	36.2	3.87	4.94	5.42	7.45	7.78	4.86	8.38	6.79
CC(C)(C)[Si](OC[C@@]1(C)[C@H]2CC[C@@]3(CO3)[C@@H](/C=C/C3=CCOC3=O)[C@]2(C)CC[C@H]1O)(c1ccccc1)c1ccccc1	4.97	3.27	4.13	4.02	3.08	6.81	6.41	4.23	4.43	6.22
CC(=O)OC[C@@]1(C)[C@H]2CC[C@@]3(CO3)[C@@H](/C=C/C3=CCOC3=O)[C@]2(C)CC[C@H]1OC(C)=O	> 50	> 50	> 50	> 50	> 50	> 50	> 50	> 50	> 50	> 50
C=C1CC[C@@H]2[C@](C)(CO[Si](C)(C)C(C)(C)C)[C@H](OC(C)=O)CC[C@@]2(C)[C@@H]1/C=C/C1=CCOC1=O	6.36	14	6.56	4.94	12.1	16.2	16	6.37	12.8	9.18
CC(=O)O[C@@H]1CC[C@]2(C)[C@H](CC[C@@]3(CO3)[C@H]2/C=C/C2=CCOC2=O)[C@]1(C)CO[Si](c1ccccc1)(c1ccccc1)C(C)(C)C	6.01	4.5	5.25	5.19	5.13	8.96	8.08	6.38	5.22	8.31
C=C1CC[C@@H]2[C@](C)(CO[Si](c3ccccc3)(c3ccccc3)C(C)(C)C)[C@H](O)CC[C@@]2(C)[C@@H]1/C=C/C1=CCOC1=O	4.4	14.7	5.51	4.45	5.07	7.72	5.53	4.44	6.48	6.49
C=C1CC[C@@H]2[C@](C)(CO[Si](C(C)C)(C(C)C)C(C)C)[C@H](OC(C)=O)CC[C@@]2(C)[C@@H]1/C=C/C1=CCOC1=O	8.28	4.1	12.1	7.17	12.6	29.4	10.2	7.07	17.9	22
C=C1CC[C@@H]2[C@](C)(CO[Si](c3ccccc3)(c3ccccc3)C(C)(C)C)[C@H](OC(C)=O)CC[C@@]2(C)[C@@H]1/C=C/C1=CCOC1=O	5.57	> 50	14.5	5.15	16	> 50	24.3	7.77	32.5	9.47
C[C@]1(CO)[C@H]2CC[C@@]3(CO3)[C@@H](/C=C/C3=CCOC3=O)[C@]2(C)CC[C@H]1O	> 50	> 50	> 50	> 50	> 50	> 50	> 50	> 50	> 50	> 50
CC(=O)OC[C@@]1(C)[C@H]2CC[C@@]3(CO3)[C@@H](/C=C/C3=CCOC3=O)[C@]2(C)CC[C@H]1O	38.1	> 50	20	> 50	48.9	> 50	> 50	43.5	48.9	46.3
C=C1CC[C@@H]2[C@](C)(CO)[C@H](O)CC[C@@]2(C)[C@@H]1/C=C/C1=CCOC1=O	7.53	36.9	35	5.07	> 50	> 50	35.8	18.7	28.6	28.2
